Experimental findings from ChEMBL document CHEMBL4359928, “Scaffold Morphing To Identify Novel DprE1 Inhibitors with Antimycobacterial Activity” (ACS Med Chem Lett, 2019) are described below.

≈ marks a conversion by molar mass, not a printed value.

Common to all, as to type: functional
In assay [1] the test system is Mycobacterium tuberculosis. Nature of the assay: Antimycobacterial activity against Mycobacterium tuberculosis H37Rv overexpressing DprE1 assessed as reduction in bacterial cell growth.
Assay [2] deals with Mycobacterium tuberculosis. In words: Antimycobacterial activity against BTZ043-resistant Mycobacterium tuberculosis H37Rv harbouring DprE1 C387G mutant assessed as reduction in bacterial cell growth.
The test system of assay [3] is Mycobacterium tuberculosis. Nature of the assay: Antimycobacterial activity against 1,4-azaindole resistant Mycobacterium tuberculosis H37Rv harbouring DprE1 Y314H mutant assessed as reduction in bacterial cell growth.
The subject of assay [4] is Mycobacterium tuberculosis. Nature of the assay: Antimycobacterial activity against Mycobacterium tuberculosis H37Rv harbouring DprE1 Y314S mutant assessed as reduction in bacterial cell growth.
Assay [5] concerns Mycobacterium tuberculosis. In words: Antimycobacterial activity against BTZ043-resistant Mycobacterium tuberculosis H37Rv harbouring DprE1 C387S mutant assessed as reduction in bacterial cell growth.
Assay [6] deals with Mycobacterium tuberculosis. Nature of the assay: Ratio of MIC for Mycobacterium tuberculosis H37Rv overexpressing DprE1 to MIC for wild type Mycobacterium tuberculosis H37Rv.
Assay [7] concerns Mycobacterium tuberculosis. Nature of the assay: Ratio of MIC for 1,4 azaindole-resistant Mycobacterium tuberculosis H37Rv harboring DprE1 Y314H mutant to MIC for wild type Mycobacterium tuberculosis H37Rv.
The mark [8] stands for this setting: Mycobacterium tuberculosis, H37Rv, read-out: MIC.

`COc1ncnc(Cn2cnc3c(C(=O)NCCF)cccc32)c1C`: the MIC was 25 to 50 µM (≈ 8.58 to 17.2 µg/mL) in assay [1] (setting [8]); 0.78 µM (≈ 0.268 µg/mL) in assay [2]; 25 to 50 µM in assay [3]; 25 µM (≈ 8.58 µg/mL) in assay [4]; 0.78 µM (≈ 0.268 µg/mL) in assay [5]. For the same compound, the Ratio in assay [6] and in assay [7] was 20 in each case.

On to `C[C@H]1COC2(CCN(c3nc(=O)c4cc(C(F)(F)F)cc([N+](=O)[O-])c4s3)CC2)O1` [BTZ-043], for which the minimal inhibitory concentration (MIC) in assay [1] worked out at 12.5 µM (≈ 5.39 µg/mL); in assay [2] it was 25 µM (≈ 10.8 µg/mL); in assay [3] it was 0.003 µM (≈ 0.00129 µg/mL); in assay [4], 0.006 µM (≈ 0.00259 µg/mL); in assay [5], 25 µM (≈ 10.8 µg/mL).

In the case of `NNC(=O)c1ccncc1` [ISONIAZID], the MIC in assay [1] (setting [8]) was found to be 0.22 µM (≈ 0.0302 µg/mL); in assay [2], 0.44 µM (≈ 0.0603 µg/mL); in assay [3], 0.44 µM (≈ 0.0603 µg/mL); in assay [4], 0.22 µM (≈ 0.0302 µg/mL); in assay [5], 0.44 µM (≈ 0.0603 µg/mL).

As to `CO[C@H]1/C=C/O[C@@]2(C)Oc3c(C)c(O)c4c(O)c(c(/C=N/N5CCN(C)CC5)c(O)c4c3C2=O)NC(=O)/C(C)=C\C=C\[C@H](C)[C@H](O)[C@@H](C)[C@@H](O)[C@@H](C)[C@H](OC(C)=O)[C@@H]1C` [RIFAMPIN], the minimal inhibitory concentration (MIC) in assay [1] (setting [8]), in assay [2] and in assay [5] was 0.005 µM (≈ 0.00411 µg/mL) throughout.

The term MIC denotes the least concentration at which growth counts as inhibited.
